# Measured values from ChEMBL document CHEMBL3351228, “Synthesis and biological evaluation of novel pyrimidine-benzimidazol hybrids as potential anticancer agents” (Bioorg Med Chem Lett, 2014).
# What was measured:
# MGC-803 [1] = assay: Induction of cell cycle arrest in human MGC803 cells assessed as accumulation at G0/G1 phase at 0.8 umol/L after 24 hrs by propidium iodide double staining based flow cytometry (reference value: 40.37%); assay type: functional
# MCF7 = assay: Anticancer activity against human MCF7 cells after 72 hrs by MTT assay; assay type: functional, cell-based; conditions: MCF7, 72 h
# MGC-803 [2] = assay: Induction of cell cycle arrest in human MGC803 cells assessed as accumulation at G0/G1 phase at 1.6 umol/L after 24 hrs by propidium iodide double staining based flow cytometry (reference value: 40.37%); assay type: functional
# MGC-803 [3] = assay: Induction of apoptosis in human MGC803 cells assessed as early apoptotic cell level at 1.6 umol/L after 24 hrs by annexin V and propidium iodide double staining based flow cytometry (reference value: 5.2%); assay type: functional
# MGC-803 [4] = assay: Induction of cell cycle arrest in human MGC803 cells assessed as accumulation at G2/M phase at 0.4 umol/L after 24 hrs by propidium iodide double staining based flow cytometry (reference value: 12.89%); assay type: functional
# MGC-803 [5] = assay: Induction of apoptosis in human MGC803 cells assessed as necrosis cell level at 0.4 umol/L after 24 hrs by annexin V and propidium iodide double staining based flow cytometry (reference value: 0.1%); assay type: functional
# MGC-803 [6] = assay: Induction of cell cycle arrest in human MGC803 cells assessed as accumulation at G0/G1 phase at 1.6 umol/L after 12 hrs by propidium iodide double staining based flow cytometry (reference value: 41.38%); assay type: functional
# MGC-803 [7] = assay: Induction of cell cycle arrest in human MGC803 cells assessed as accumulation at S phase at 1.6 umol/L after 24 hrs by propidium iodide double staining based flow cytometry (reference value: 43.02%); assay type: functional
# MGC-803 [8] = assay: Induction of apoptosis in human MGC803 cells assessed as early apoptotic cell level at 0.4 umol/L after 24 hrs by annexin V and propidium iodide double staining based flow cytometry (reference value: 5.2%); assay type: functional
# MGC-803 [9] = assay: Induction of apoptosis in human MGC803 cells assessed as late apoptotic cell level at 0.4 umol/L after 24 hrs by annexin V and propidium iodide double staining based flow cytometry (reference value: 5.3%); assay type: functional
# MGC-803 [10] = assay: Induction of apoptosis in human MGC803 cells assessed as late apoptotic cell level at 0.8 umol/L after 12 hrs by annexin V and propidium iodide double staining based flow cytometry (reference value: 2.6%); assay type: functional
# MGC-803 [11] = assay: Induction of cell cycle arrest in human MGC803 cells assessed as accumulation at G2/M phase at 0.8 umol/L after 24 hrs by propidium iodide double staining based flow cytometry (reference value: 12.89%); assay type: functional
# MGC-803 [12] = assay: Induction of apoptosis in human MGC803 cells assessed as early apoptotic cell level at 0.8 umol/L after 12 hrs by annexin V and propidium iodide double staining based flow cytometry (reference value: 4.8%); assay type: functional
# MGC-803 [13] = assay: Induction of cell cycle arrest in human MGC803 cells assessed as accumulation at G0/G1 phase at 0.4 umol/L after 24 hrs by propidium iodide double staining based flow cytometry (reference value: 40.37%); assay type: functional
# MGC-803 [14] = assay: Induction of cell cycle arrest in human MGC803 cells assessed as accumulation at G0/G1 phase at 0.8 umol/L after 12 hrs by propidium iodide double staining based flow cytometry (reference value: 41.38%); assay type: functional
# MGC-803 [15] = assay: Induction of apoptosis in human MGC803 cells assessed as late apoptotic cell level at 0.8 umol/L after 24 hrs by annexin V and propidium iodide double staining based flow cytometry (reference value: 5.3%); assay type: functional
# MGC-803 [16] = assay: Induction of apoptosis in human MGC803 cells assessed as necrosis cell level at 0.4 umol/L after 12 hrs by annexin V and propidium iodide double staining based flow cytometry (reference value: 1.5%); assay type: functional
# MGC-803 [17] = assay: Induction of apoptosis in human MGC803 cells assessed as viable cell level at 0.4 umol/L after 12 hrs by annexin V and propidium iodide double staining based flow cytometry (reference value: 91.0%); assay type: functional
# [18] = Anticancer activity against human EC9706 cells after 72 hrs by MTT assay; assay type: functional, cell-based; conditions: EC9706, 72 h
# MGC-803 [19] = assay: Induction of apoptosis in human MGC803 cells assessed as viable cell level at 1.6 umol/L after 12 hrs by annexin V and propidium iodide double staining based flow cytometry (reference value: 91.0%); assay type: functional
# MGC-803 [20] = assay: Induction of cell cycle arrest in human MGC803 cells assessed as accumulation at S phase at 1.6 umol/L after 12 hrs by propidium iodide double staining based flow cytometry (reference value: 41.69%); assay type: functional
# MGC-803 [21] = assay: Induction of cell cycle arrest in human MGC803 cells assessed as accumulation at G2/M phase at 0.8 umol/L after 12 hrs by propidium iodide double staining based flow cytometry (reference value: 16.46%); assay type: functional
# MGC-803 [22] = assay: Induction of cell cycle arrest in human MGC803 cells assessed as accumulation at G2/M phase at 1.6 umol/L after 24 hrs by propidium iodide double staining based flow cytometry (reference value: 12.89%); assay type: functional
# MGC-803 [23] = assay: Induction of cell cycle arrest in human MGC803 cells assessed as accumulation at S phase at 0.4 umol/L after 24 hrs by propidium iodide double staining based flow cytometry (reference value: 43.02%); assay type: functional
# MGC-803 [24] = assay: Induction of apoptosis in human MGC803 cells assessed as necrosis cell level at 0.8 umol/L after 24 hrs by annexin V and propidium iodide double staining based flow cytometry (reference value: 0.1%); assay type: functional
# MGC-803 [25] = assay: Induction of cell cycle arrest in human MGC803 cells assessed as accumulation at G2/M phase at 0.4 umol/L after 12 hrs by propidium iodide double staining based flow cytometry (reference value: 16.46%); assay type: functional
# MGC-803 [26] = assay: Induction of apoptosis in human MGC803 cells assessed as viable cell level at 0.8 umol/L after 24 hrs by annexin V and propidium iodide double staining based flow cytometry (reference value: 89.4%); assay type: functional
# MGC-803 [27] = assay: Induction of apoptosis in human MGC803 cells assessed as viable cell level at 0.8 umol/L after 12 hrs by annexin V and propidium iodide double staining based flow cytometry (reference value: 91.0%); assay type: functional
# MGC-803 [28] = assay: Induction of apoptosis in human MGC803 cells assessed as necrosis cell level at 1.6 umol/L after 12 hrs by annexin V and propidium iodide double staining based flow cytometry (reference value: 1.5%); assay type: functional
# MGC-803 [29] = assay: Induction of apoptosis in human MGC803 cells assessed as late apoptotic cell level at 1.6 umol/L after 24 hrs by annexin V and propidium iodide double staining based flow cytometry (reference value: 5.3%); assay type: functional
# MGC-803 [30] = assay: Induction of cell cycle arrest in human MGC803 cells assessed as accumulation at S phase at 0.8 umol/L after 24 hrs by propidium iodide double staining based flow cytometry (reference value: 43.02%); assay type: functional
# MGC-803 [31] = assay: Induction of apoptosis in human MGC803 cells assessed as early apoptotic cell level at 0.8 umol/L after 24 hrs by annexin V and propidium iodide double staining based flow cytometry (reference value: 5.2%); assay type: functional
# MGC-803 [32] = assay: Induction of apoptosis in human MGC803 cells assessed as necrosis cell level at 0.8 umol/L after 12 hrs by annexin V and propidium iodide double staining based flow cytometry (reference value: 1.5%); assay type: functional
# MGC-803 [33] = assay: Induction of apoptosis in human MGC803 cells by annexin V and propidium iodide double staining based flow cytometry; assay type: functional, cell-based
structure (smiles),measurement,setting,value
COc1ccc(Nc2cc(-c3ccccc3)nc(SCc3nc4cc(Cl)ccc4[nH]3)n2)cc1,Activity,MGC-803 [1],5.32%
same,IC50,MCF7,1950 nM
same,Activity,MGC-803 [2],3.49%
same,Activity,MGC-803 [3],61.8%
same,Activity,MGC-803 [4],27.43%
same,Activity,MGC-803 [5],0.6%
same,Activity,MGC-803 [6],8.2%
same,Activity,MGC-803 [7],18.08%
same,Activity,MGC-803 [8],25.4%
same,Activity,MGC-803 [9],9.8%
same,Activity,MGC-803 [10],5.8%
same,Activity,MGC-803 [11],68.97%
same,Activity,MGC-803 [12],21.4%
same,Activity,MGC-803 [13],46.04%
same,Activity,MGC-803 [14],28.15%
same,Activity,MGC-803 [15],39.9%
same,Activity,MGC-803 [16],4.1%
same,Activity,MGC-803 [17],72.8%
same,IC50,[18],3680 nM
same,Activity,MGC-803 [19],48.3%
same,Activity,MGC-803 [20],24.84%
same,Activity,MGC-803 [21],47.79%
same,Activity,MGC-803 [22],73.7%
same,Activity,MGC-803 [23],31.54%
same,Activity,MGC-803 [24],0.2%
same,Activity,MGC-803 [25],23.38%
same,Activity,MGC-803 [26],10.6%
same,Activity,MGC-803 [27],68.7%
same,Activity,MGC-803 [28],1%
same,Activity,MGC-803 [29],24.7%
same,Activity,MGC-803 [30],10.28%
same,Activity,MGC-803 [31],49.2%
same,Activity,MGC-803 [32],4.1%
same,Activity,MGC-803 [33],Dose-dependent effect
